Test [1] deals with T1, Rac-1 (Homo sapiens (Human), UniProt P63000). As to the kind of experiment: MicroScale Thermophoresis (MST), GTP affinity for binding domain.
Test [2] deals with T1, Rac-1. Put plainly: Scintillation Proximity Assay (SPA), GTP affinity for binding domain.
Test [3] has as its target T2, K-Ras (Q61H) (Homo sapiens (Human), UniProt P01116, Q61H). The description is as above. An excerpt:
(§1) For the first time, the affinity of GTP for the GTP binding domain of K-Ras utilizing a Scintillation Proximity Assay (SPA) and MicroScale Thermophoresis (MST) has been measured and disclosed herein. These methods were not available when Wittinghofer and colleagues undertook their studies.
(§2) This therefore led to the novel, unanticipated conclusion that compounds such as small molecules could be discovered that would bind to a Ras GTP binding domain and compete with the binding of GTP to Ras.
(§3) See Khawaja et al., “Scintillation proximity assay in lead discovery”, Expert Opin. Drug Discov., 2008 November; 3(11):1267-80 regarding SPA procedures. See the following references regarding MST technology: Wienken et al., Nature Communications (2010), Protein binding assays in biological liquids using MicroScale Thermophoresis; Jerabek-Willemsen et al., ASSAY and Drug Development Technologies (2011), Molecular interaction studies using MicroScale Thermophoresis; Lin et al., Cell (2012), Inhibition of basal FGF receptor signaling by dimeric Grb2; Seidel et al., Angewandte Chemie (2012), Label-Free MicroScale Thermophoresis discriminates sites and affinity of protein-ligand binding; Seidel et al., Methods (2012), MicroScale Thermophoresis quantifies biomolecular interactions under previously challenging conditions; Parker & Newstead, Nature (2014), Molecular basis of nitrate uptake by the plant nitrate transporter NRT1.1; and Jerabek-Willemsen et al., Journal of Molecular Structure (2014), MicroScale Thermophoresis: Interaction analysis and beyond.

The target of test [4] is T3, KRas wild type (Homo sapiens (Human), UniProt P01116). The description is as above.
Description: as §1, §2, §3

Test [5] deals with T4, K-Ras (G12C) (Homo sapiens (Human), UniProt P01116, G12C). The description is as above.
Description: as §1, §2, §3

In test [6] the target is T5, K-Ras (G12D) (Homo sapiens (Human), UniProt P01116, G12D). Described as above.
Description: as §1, §2, §3

The target of test [7] is T6, K-Ras (Q61H/G12C) (Homo sapiens (Human), UniProt P01116, G12C/Q61H). The test is described as above.
Description: as §1, §2, §3

The target of test [8] is T7, K-Ras (Q61H/G12D) (Homo sapiens (Human), UniProt P01116, G12D/Q61H). Described as above.
Description: as §1, §2, §3

Test [9] addresses T8, Rho-A (Homo sapiens (Human), UniProt P61586). The description is as above.
Test [10] addresses K-Ras GTP binding domain across wild type and mutant K-Ras. Put plainly: SPA and MST studies, summary range across K-Ras forms. The following applies: read-out: affinity of GTP for the K-Ras GTP binding domain.
Description: For the first time, the affinity of GTP for the GTP binding domain of K-Ras utilizing a Scintillation Proximity Assay (SPA) and MicroScale Thermophoresis (MST) has been measured and disclosed herein. These methods were not available when Wittinghofer and colleagues (referenced above) undertook their studies.
as §2, §1
See Khawaja et al., “Scintillation proximity assay in lead discovery”, Expert Opin. Drug Discov., 2008 November; 3(11):1267-80 regarding SPA procedures. […]

The target in test [11] is Rac-1 and Rho-A members of the Rho subfamily. Put plainly: SPA and MST studies, summary range for Rho subfamily members. The following applies: read-out: affinity of GTP for the binding domain of Rho subfamily members.
Description: as §2, §3

The target of test [12] is GTP binding domain of Ras. The following applies: literature, kinetic and filter binding measurements with radiolabeled GDP and GTP; cited from earlier work.
The target of test [13] is T2, K-Ras (Q61H). Put plainly: MicroScale Thermophoresis (MST), GTP affinity for binding domain.
Description: as §1, §2, §3

In test [14] the target is T3, KRas wild type. The description is as above.
Description: as §1, §2, §3

The target in test [15] is T4, K-Ras (G12C). The description is as above.
Description: as §1, §2, §3

In test [16] the target is T5, K-Ras (G12D). The description is as above.
Description: as §1, §2, §3

The target of test [17] is T6, K-Ras (Q61H/G12C). Described as above.
Description: as §1, §2, §3

Test [18] has as its target T7, K-Ras (Q61H/G12D). The description is as above.
Description: as §1, §2, §3

The target in test [19] is T8, Rho-A. The description is as above.

T2 sequence (P01116-2 other isoform, or with tags, fused parts or gaps Q61H): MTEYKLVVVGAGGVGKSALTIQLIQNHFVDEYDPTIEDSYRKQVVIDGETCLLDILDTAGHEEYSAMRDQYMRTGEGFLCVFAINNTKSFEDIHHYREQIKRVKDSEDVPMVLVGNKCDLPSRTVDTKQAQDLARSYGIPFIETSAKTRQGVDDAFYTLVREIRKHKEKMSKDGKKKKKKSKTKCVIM
T6 sequence (P01116-2 other isoform, or with tags, fused parts or gaps G12C/Q61H): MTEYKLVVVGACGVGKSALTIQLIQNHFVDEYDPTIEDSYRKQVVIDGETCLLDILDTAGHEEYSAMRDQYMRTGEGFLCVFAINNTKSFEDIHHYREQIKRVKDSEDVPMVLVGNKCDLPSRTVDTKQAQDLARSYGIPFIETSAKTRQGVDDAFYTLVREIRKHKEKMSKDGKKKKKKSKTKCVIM
T3 sequence (P01116-2 other isoform, or with tags, fused parts or gaps): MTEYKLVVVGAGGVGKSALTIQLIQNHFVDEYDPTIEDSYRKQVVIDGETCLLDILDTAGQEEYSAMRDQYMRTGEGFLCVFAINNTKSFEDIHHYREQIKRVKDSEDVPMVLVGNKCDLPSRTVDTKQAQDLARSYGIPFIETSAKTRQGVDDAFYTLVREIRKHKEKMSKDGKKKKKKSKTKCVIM
T5 sequence (P01116-2 other isoform, or with tags, fused parts or gaps G12D): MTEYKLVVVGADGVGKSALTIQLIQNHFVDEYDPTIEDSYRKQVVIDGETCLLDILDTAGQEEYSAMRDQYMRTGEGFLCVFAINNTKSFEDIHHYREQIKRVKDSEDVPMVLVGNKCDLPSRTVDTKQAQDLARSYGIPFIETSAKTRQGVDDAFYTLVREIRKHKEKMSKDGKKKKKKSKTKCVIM
T8 sequence (P61586 whole entry, the tested form may be a part): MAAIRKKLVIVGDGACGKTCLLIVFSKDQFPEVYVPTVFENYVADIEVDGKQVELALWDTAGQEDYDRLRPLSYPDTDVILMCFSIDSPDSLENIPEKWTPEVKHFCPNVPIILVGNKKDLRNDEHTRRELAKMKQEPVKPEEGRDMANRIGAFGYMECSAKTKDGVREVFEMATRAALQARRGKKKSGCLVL
T7 sequence (P01116-2 other isoform, or with tags, fused parts or gaps G12D/Q61H): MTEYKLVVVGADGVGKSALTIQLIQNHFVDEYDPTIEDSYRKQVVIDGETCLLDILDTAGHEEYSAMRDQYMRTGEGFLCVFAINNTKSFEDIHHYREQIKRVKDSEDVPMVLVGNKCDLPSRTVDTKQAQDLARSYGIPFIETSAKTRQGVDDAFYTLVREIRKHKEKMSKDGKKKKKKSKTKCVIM
T4 sequence (P01116-2 other isoform, or with tags, fused parts or gaps G12C): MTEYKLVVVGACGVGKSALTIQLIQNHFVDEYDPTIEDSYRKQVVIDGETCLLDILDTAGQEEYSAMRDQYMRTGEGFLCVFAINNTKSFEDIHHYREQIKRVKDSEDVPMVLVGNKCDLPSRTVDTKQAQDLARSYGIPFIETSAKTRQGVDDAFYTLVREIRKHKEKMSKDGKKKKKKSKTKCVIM

As for `Nc1nc2c(ncn2[C@@H]2O[C@H](COP(=O)(O)OP(=O)(O)OP(=O)(O)O)[C@@H](O)[C@H]2O)c(=O)[nH]1` [GTP], the Kd in test [1] was found to be 166 ± 10 nM; in [2] it was 151 ± 14 nM; in test [3], 118 ± 11 nM; in [4] it was 243 ± 15 nM; in [5] it was 258 ± 18 nM; in test [6], 270 ± 15 nM. Also, the Kd was 104 ± 11 nM in [7]; 135 ± 19 nM in test [8]; 129 ± 12 nM in [9]; 100 to 465 nM in test [10]; 120 to 170 nM in test [11]; 157 ± 21 nM in test [13]. The Kd in [14] is 463 ± 2 nM; in [15], 207 ± 46 nM; in test [16], 244 ± 12 nM; in [17] it was 266 ± 57 nM; in [18] it was 268 ± 108 nM; in test [19], 130 ± 5 nM. The “affinity for the GTP binding domain of Ras” value in test [12] was “single to double digit picomolar”.

Source of the values: patent US10940139B2, “Compounds that interact with the Ras superfamily for the treatment of cancers, inflammatory diseases, rasopathies, and fibrotic disease” (Shy Therapeutics LLC, priority 2017, dated 2021).
